Measured values from patent US20050069541A1, “Composition for and treatment of demyelinating diseases and paralysis by administration of remyelinating agents” (priority 2003, published 2005).
“Also recorded” adds a separate entry of the source.

Key:
IL-2, IL-10, MCP-1 RNA = test: Chronic EAE: quantitative RT-PCR of spinal cord; type: in vivo, guinea pig
Protocol: Quantitative Reverse Transcription-PCR: IL-2, IL-10, MCP-1. RNA was isolated from 30 mg of frozen guinea pig spinal cord using the S.N.A.P.™ (simple nucleic acid preparation) total RNA Isolation Kit (Invitrogen) according to manufacturer's instructions, modified to include a second DNAse treatment step followed by an additional purification over the S.N.A.P. column.
Primer/probe sequences and concentrations for IL-2, IL-10, and MCP-1 are given in Table 7, as well as the standard RNA used for each gene. RT-PCR was carried out in triplicate using the ABI PRISM® 7700 Sequence Detection System. 50 μl reactions contained 10 to 800 ng of total RNA and primers and probes at the concentrations indicated above in reaction buffer consisting of 6.67% glycerol (Amresco); 5.5 mM MgCl; 300 μM DATP, dCTP, dGTP, and dUTP; 100 nM probe; 1.25 unit of AmpliTaq Gold® DNA Polymerase (Applied Biosystems); 1× TaqMan® Buffer A (TaqMan® PCR Core reagents kit, Applied Biosystems), 20 units of RNase Inhibitor (Roche); 1.25 unit of murine leukemia virus (MuLV) Reverse Transcriptase (Applied Biosystems). Reverse-transcription of RNA was carried out at 48° C. for 30 min., followed by a 10 min. denaturing step at 95° C. PCR was carried out by 40 thermo-cycles consisting of 95° C. for 15 seconds followed by 60° C. for 1 minute. Each plate included a standard curve using the standard RNA listed in Table 7 and two additional control samples: 1) a positive control RNA sample used on all plates, 2) a non-template control (NTC).
The correlation coefficients of the standard curves were greater than 0.990 for all data shown. The coefficients of variation for sample triplicates were less than 0.2. Since the RNA used for the standard curve is a heterogeneous mix of RNA containing a constant but unknown amount of the target message, the numbers calculated are relative.

[1] = system: α4 integrin on circulating lymphocytes and monocytes; test: Chronic EAE: FACS analysis of α4 integrin on circulating cells, day 80; type: in vivo, guinea pig
Protocol: FACS Analysis. On day 80 post-immunization, heparinized blood samples were collected from non-EAE animals, saline-treated animals, N-[N-(3-pyridinesulfonyl)-L-3,3-dimethyl-4-thiaprolyl]-O-[1-methylpiperazin-4-ylcarbonyl]-L-tyrosine isopropyl ester-treated animals and animals 10 days following withdrawal of N-[N-(3-pyridinesulfonyl)-L-3,3-dimethyl-4-thiaprolyl]-O-[1-methylpiperazin-4-ylcarbonyl]-L-tyrosine isopropyl ester. All samples were maintained at 4° C. for all procedures. 150 μl samples were exposed to primary antibody for 30 minutes, washed twice, and then incubated with PE-conjugated goat anti-mouse IgG Fc in the presence of 5% guinea pig serum (Beckman Coulter #PN EM055 1). Red blood cells were lysed with Becton-Dickinson lysing solution and the samples were examined on a FACScan flow cytometer (Becton Dickinson, Mountain View, Calif.) gating on different cell populations by light scatter.

[2] = system: spinal cord lesions of paralyzed EAE guinea pigs; test: Example 2: spontaneous remyelination in chronic EAE (SCR, toluidine blue, EM, lesion area analysis, motor function); type: in vivo, guinea pig
[3] = system: guinea pig model of CP-EAE; details: with increasing duration of treatment; Piraino et al., 2002; cited from earlier work
[4] = system: EAE in female Hartley guinea pigs
α4 integrin = α4 integrin (Homo sapiens, UniProt P05556+P13612); test: Inhibition of cell adhesion to VCAM; type: cell-based, human and guinea pig; details: human and guinea pig integrin; read-out: IC50 for inhibition of cell adhesion to VCAM
[5] = system: guinea pig model of CP-EAE; test: Remyelination and motor function in guinea pig CP-EAE; type: in vivo
From the text: The number of lesions showing myelin pallor was divided by the total number of lesions within cross sections of spinal cord taken throughout its length from each animal (FIG. 10) (for the method see Warrington et al., 2000, Proc. Nat'l Acad. Sci. USA 97: 6820-5). […] In contrast, after 20 days of N-[N-(3-pyridinesulfonyl)-L-3,3-dimethyl-4-thiaprolyl]-O-[1-methylpiperazin-4-ylcarbonyl]-L-tyrosine isopropyl ester administration, the frequency of shadow plaques in the spinal cord was increased over saline-treated animals, reaching 68%; after 30 and 40 days, the incidence was 77% and 87%, respectively (p<0.001, 2-way ANOVA with Tukey test).
The overall degree of plaque remyelination in the spinal cord was also measured. […] Total lesion area was determined for each animal by tracing all lesions within all spinal cord sections and summing the areas. Likewise, the total area of remyelination was measured by tracing regions of myelin pallor. FIGS. 10C-F plot the total lesion area against the percentage of remyelination. In saline-treated animals, lesions rarely show any evidence of repair, with means ranging between 2 and 11%, and there were no significant differences over the 40-day treatment period (FIGS. 10C-F). In contrast, after 20, 30 or 40 days of N-[N-(3-pyridinesulfonyl)-L-3,3-dimethyl-4-thiaprolyl]-O-[1-methylpiperazin-4-ylcarbonyl]-L-tyrosine isopropyl ester treatment, the majority of lesions identified show a variable degree of remyelination ranged from 2 to 100% in the majority of lesions (mean area of remyelination approximately 50%) (FIGS. 10D-5). (p<0.001, 2-way ANOVA with Tukey test). Therefore while lesions were evident in all animals throughout the 40-day treatment period, N-[N-(3-pyridinesulfonyl)-L-3,3-dimethyl-4-thiaprolyl]-O-[1-methylpiperazin-4-ylcarbonyl]-L-tyrosine isopropyl ester increased the incidence and percentage of remyelination. Furthermore, evidence of remyelination in N-[N-(3-pyridinesulfonyl)-L-3,3-dimethyl-4-thiaprolyl]-O-[1-methylpiperazin-4-ylcarbonyl]-L-tyrosine isopropyl ester-treated animals is consistent with an observed regain of motor function. The starting point for treatment was a clinical score of 2, which denotes full bilateral hind limb paralysis. […] Functional recovery was never observed in control animals.

Chain of α4 integrin (P13612 34-1032): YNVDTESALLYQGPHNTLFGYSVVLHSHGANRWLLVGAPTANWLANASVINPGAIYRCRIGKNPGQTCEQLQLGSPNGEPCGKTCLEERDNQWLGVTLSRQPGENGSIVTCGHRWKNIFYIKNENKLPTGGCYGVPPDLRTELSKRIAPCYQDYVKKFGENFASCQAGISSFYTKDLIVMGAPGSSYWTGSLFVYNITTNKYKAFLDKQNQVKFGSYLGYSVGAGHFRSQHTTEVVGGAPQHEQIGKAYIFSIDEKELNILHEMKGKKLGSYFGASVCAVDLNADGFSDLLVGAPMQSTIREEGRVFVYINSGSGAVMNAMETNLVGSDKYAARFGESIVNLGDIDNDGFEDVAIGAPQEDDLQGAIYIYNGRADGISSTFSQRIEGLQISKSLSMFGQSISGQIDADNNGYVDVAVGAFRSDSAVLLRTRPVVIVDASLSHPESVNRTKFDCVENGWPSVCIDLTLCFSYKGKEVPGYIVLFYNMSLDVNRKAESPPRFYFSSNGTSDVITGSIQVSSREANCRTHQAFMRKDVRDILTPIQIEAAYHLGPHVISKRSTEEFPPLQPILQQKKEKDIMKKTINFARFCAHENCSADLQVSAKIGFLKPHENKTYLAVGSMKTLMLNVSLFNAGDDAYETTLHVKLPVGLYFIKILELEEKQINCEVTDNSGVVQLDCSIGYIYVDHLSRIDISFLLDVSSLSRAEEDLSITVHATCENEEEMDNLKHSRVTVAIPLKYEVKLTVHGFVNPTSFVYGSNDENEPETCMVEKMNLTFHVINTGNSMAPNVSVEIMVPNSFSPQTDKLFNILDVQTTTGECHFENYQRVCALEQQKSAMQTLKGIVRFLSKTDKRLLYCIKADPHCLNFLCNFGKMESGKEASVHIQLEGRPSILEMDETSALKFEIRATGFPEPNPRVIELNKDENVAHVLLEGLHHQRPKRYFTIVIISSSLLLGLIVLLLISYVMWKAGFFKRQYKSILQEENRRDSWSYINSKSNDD
Chain of α4 integrin (P05556 21-798): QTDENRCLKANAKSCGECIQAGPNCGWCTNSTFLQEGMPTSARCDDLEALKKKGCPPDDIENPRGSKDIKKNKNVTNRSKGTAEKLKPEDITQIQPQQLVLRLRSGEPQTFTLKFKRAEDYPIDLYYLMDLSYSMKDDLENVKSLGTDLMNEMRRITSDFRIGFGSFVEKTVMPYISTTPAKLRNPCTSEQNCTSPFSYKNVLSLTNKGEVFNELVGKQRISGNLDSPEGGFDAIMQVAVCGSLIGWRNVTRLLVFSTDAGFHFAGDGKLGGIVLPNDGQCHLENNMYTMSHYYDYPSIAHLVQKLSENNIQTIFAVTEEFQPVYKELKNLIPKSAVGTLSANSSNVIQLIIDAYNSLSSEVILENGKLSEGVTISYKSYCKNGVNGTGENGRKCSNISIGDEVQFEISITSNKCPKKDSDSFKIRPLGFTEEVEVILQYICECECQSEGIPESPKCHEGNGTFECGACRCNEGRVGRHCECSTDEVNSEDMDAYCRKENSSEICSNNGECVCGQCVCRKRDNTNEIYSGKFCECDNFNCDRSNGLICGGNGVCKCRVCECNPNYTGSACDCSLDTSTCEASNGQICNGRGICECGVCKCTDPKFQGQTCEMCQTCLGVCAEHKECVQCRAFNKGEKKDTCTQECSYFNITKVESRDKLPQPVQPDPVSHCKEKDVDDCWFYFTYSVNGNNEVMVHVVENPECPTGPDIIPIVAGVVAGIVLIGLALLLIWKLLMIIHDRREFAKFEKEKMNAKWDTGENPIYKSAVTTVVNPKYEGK

## CC(C)OC(=O)[C@H](Cc1ccc(OC(=O)N2CCN(C)CC2)cc1)NC(=O)[C@H]1N(S(=O)(=O)c2cccnc2)CSC1(C)C [N-[N-(3-pyridinesulfonyl)-L-3,3-dimethyl-4-thiaprolyl]-O-[1-methylpiperazin-4-ylcarbonyl]-L-tyrosine isopropyl ester]
IL-2, IL-10, MCP-1 RNA; 10 days after withdrawal
  cytokine RNA after withdrawal of compound: returned to levels comparable to saline-treated animals
IL-2, IL-10, MCP-1 RNA; lumbar spinal cord
  IL-2 RNA in spinal cord during treatment: almost no detectable IL-2 RNA
IL-2, IL-10, MCP-1 RNA; lumbar spinal cord, versus saline
  inflammatory cytokine RNA (IL-2, IL-10, MCP-1) during treatment: significant reduction; also recorded: marked decrease
[1]; 10 days after withdrawal
  percentage of α4 integrin bright lymphocytes in the circulation after removal of compound: returned to saline-treated levels
[1]; day 80
  increase of α4 integrin expression on circulating monocytes in EAE: not affected
[1]; day 80 post immunization
  α4 integrin bright lymphocytes in the circulation versus saline: large increase
[2]; 30 mg/kg twice daily s.c.
  myelin repair, share of the total lesion area: 50%
[2]; 10 days
  SCR-stained spinal cord after 10 days of treatment: minimal evidence of myelin pallor
[2]; 20 days
  SCR-stained spinal cord lesions after 20 days of treatment: many lesions exhibited diffuse pale blue staining
[2]; 40 days
  SCR-stained spinal cord lesions after 40 days of treatment: presented as shadow plaques
[2]; after 40 days of treatment, 30 mg/kg twice daily s.c.
  plaques showing evidence of remyelination: 87%
[2]; day 30 of treatment
  semithin and EM sections of lesions: multiple thin myelin layers around large caliber axons
[2]; paralyzed guinea pigs, clinical score 2 at start
  animals that regained motor function: 50%
[3]
  immune cell infiltrates and associated inflammatory mediators: progressively reduce immune cell infiltrates
[4]; 30 mg/kg 2x/day s.c.
  start of clinical reversal following the initial treatment: 2 to 3 days
[4]; 30 mg/kg 2x/day s.c. from day 40 for 10-40 days, p<0.001 Mann Whitney
  mean clinical score over the treatment period versus saline: significantly lower
[4]; n=5, p<0.05 Mann Whitney
  mean clinical score day 70-80 after withdrawal (30 days treatment, 10 days off) versus continuous treatment: significantly greater
[4]; several animals, paresis reversed
  clinical score reached during treatment in animals with an established clinical score of 2: 1
[4]; up to 40 days of treatment
  escape from treatment: None of the animals, however, escaped from treatment
α4 integrin
  IC50: 1 nM
[5]; after 20, 30 or 40 days of treatment
  mean area of remyelination: approximately 50%
[5]; after 20 days of administration
  percentage of plaques exhibiting evidence of remyelination (frequency of shadow plaques in the spinal cord): 68%
[5]; after 30 days
  percentage of plaques exhibiting evidence of remyelination (incidence): 77%
[5]; after 40 days
  percentage of plaques exhibiting evidence of remyelination (incidence): 87%
[5]; treatment started at clinical score of 2
  treated animals in which paralysis was reversed to a clinical score of 1: 50%
